In the NIST ThermoML archive (doi:10.1016/j.jct.2015.07.012):
Numbers after ± are expanded uncertainties.

Key:
[1] = wn = mass fraction of the nth substance listed; conditions: 298.15 K, 100 kPa, Liquid; for speed of sound: Frequency=3 MHz, Sing-around technique in a fixed-path interferometer; for mass density: Vibrating tube method
[2] = 101.33 kPa, Liquid; for speed of sound: Sing-around technique in a fixed-path interferometer; for mass density: Vibrating tube method
[3] = refractive index (Na D-line) (dimensionless); conditions: 303.15 K; 101.33 kPa; Liquid; Standard Abbe refractometry

CCCCCCCC(=O)[O-].C[NH2+]C1CCCCC1 [N-methylcyclohexylammonium octanoate] + O
[1]
Conditions | mass density [kg/m3] | speed of sound [m/s]
w2 = 0.002193 | 935.17 ± 1.8 | 1453.1 ± 8.6
w2 = 0.004032 | 935.76 ± 1.8 | 1457.6 ± 8.6
w2 = 0.005228 | 936.14 ± 1.8 | 1459.7 ± 8.6
w2 = 0.007628 | 937.01 ± 1.8 | 1462.3 ± 8.6
w2 = 0.009495 | 937.53 ± 1.8 | 1463.2 ± 8.6

CCCCCCCC(=O)[O-].C[NH2+]C1CCCCC1 [N-methylcyclohexylammonium octanoate]
[2]
Conditions | mass density [kg/m3] | speed of sound [m/s]
293.15 K | 938.59 ± 1.8 | 1471.6 ± 8.6
298.15 K | 935.17 ± 1.8 | 1453.1 ± 8.6
303.15 K | 931.73 ± 1.8 | 1435 ± 8.6
308.15 K | 928.25 ± 1.8 | 1417.2 ± 8.6
313.15 K | 924.74 ± 1.8 | 1399.5 ± 8.6
318.15 K | 921.21 ± 1.8 | 1381 ± 8.6
323.15 K | 917.65 ± 1.8 | 1363.7 ± 8.6
328.15 K | 914.07 ± 1.8 | 1346.5 ± 8.6
333.15 K | 910.46 ± 1.8 | 1329.4 ± 8.6
338.15 K | 906.82 ± 1.8 | 1312.4 ± 8.6
343.15 K | 903.15 ± 1.8 | 1295.4 ± 8.6

Conditions | refractive index
[3] | 1.464 ± 0.0012

CCCCC(=O)[O-].C[NH2+]C1CCCCC1 [N-methylcyclohexylammonium pentanoate]
[2]
Conditions | mass density [kg/m3] | speed of sound [m/s]
293.15 K | 965.76 ± 1.9 | 1495.3 ± 8.6
298.15 K | 962.21 ± 1.9 | 1475.7 ± 8.6
303.15 K | 958.63 ± 1.9 | 1456.7 ± 8.6
308.15 K | 955.01 ± 1.9 | 1438.2 ± 8.6
313.15 K | 951.34 ± 1.9 | 1420.1 ± 8.6
318.15 K | 947.63 ± 1.9 | 1402.1 ± 8.6
323.15 K | 943.88 ± 1.9 | 1384.2 ± 8.6
328.15 K | 940.1 ± 1.8 | 1366.5 ± 8.6
333.15 K | 936.29 ± 1.8 | 1348.8 ± 8.6
338.15 K | 932.44 ± 1.8 | 1331.1 ± 8.6
343.15 K | 928.54 ± 1.8 | 1313.5 ± 8.6

Conditions | refractive index
[3] | 1.4627 ± 0.0012

CCCCCCC(=O)[O-].C[NH2+]C1CCCCC1 [N-methylcyclohexylammonium heptanoate]
[2]
Conditions | mass density [kg/m3] | speed of sound [m/s]
293.15 K | 945.8 ± 1.9 | 1478.3 ± 8.6
298.15 K | 942.18 ± 1.8 | 1458.5 ± 8.6
303.15 K | 938.51 ± 1.8 | 1440.2 ± 8.6
308.15 K | 934.81 ± 1.8 | 1422.2 ± 8.6
313.15 K | 931.05 ± 1.8 | 1404.5 ± 8.6
318.15 K | 927.26 ± 1.8 | 1385.1 ± 8.6
323.15 K | 923.44 ± 1.8 | 1368.6 ± 8.6
328.15 K | 919.59 ± 1.8 | 1351.4 ± 8.6
333.15 K | 915.71 ± 1.8 | 1334.1 ± 8.6
338.15 K | 911.8 ± 1.8 | 1316.1 ± 8.6
343.15 K | 907.85 ± 1.8 | 1299.1 ± 8.6

Conditions | refractive index
[3] | 1.4636 ± 0.0012

CCCCCC(=O)[O-].C[NH2+]C1CCCCC1 [N-methylcyclohexylammonium hexanoate]
[2]
Conditions | mass density [kg/m3] | speed of sound [m/s]
293.15 K | 955.14 ± 1.9 | 1484 ± 8.6
298.15 K | 951.65 ± 1.9 | 1464.9 ± 8.6
303.15 K | 948.13 ± 1.9 | 1446.4 ± 8.6
308.15 K | 944.56 ± 1.9 | 1428.2 ± 8.6
313.15 K | 940.96 ± 1.8 | 1410.3 ± 8.6
318.15 K | 937.32 ± 1.8 | 1392.6 ± 8.6
323.15 K | 933.66 ± 1.8 | 1375 ± 8.6
328.15 K | 929.96 ± 1.8 | 1357.5 ± 8.6
333.15 K | 926.23 ± 1.8 | 1340 ± 8.6
338.15 K | 922.46 ± 1.8 | 1322.6 ± 8.6
343.15 K | 918.66 ± 1.8 | 1305.2 ± 8.6

Conditions | refractive index
[3] | 1.4631 ± 0.0012
